The subject of one series is AP activity (Wieslab). The series can be described thus: First in human (FIH) studies: suppression of AP activity (Wieslab). The class given is in vivo.
The nature of series [1]: Human absorption, distribution, metabolism, and excretion (ADME) study in healthy volunteers. The class given is in vivo.
For series [2], the system named is organic anion-transporting polypeptide (OATP) hepatic uptake transporter. The series can be described thus: Preclinical studies of systemic disposition: hepatic uptake transporter. The series is classed as in vitro ADME. The text has this: In addition, some contribution from direct kidney (approximately 20%) and direct biliary excretion (around 5 to 10%) is anticipated. Iptacopan is also a substrate for the organic anion-transporting polypeptide (OATP) hepatic uptake transporter. […] Typical examples are digoxin, quinidine, paclitaxel, fentanyl and phenytoin. However, if no alternative treatment is available, a staggered dosing approach is recommended (refer to Section 6.2.1.1). • · Concomitant medication listed under exclusion criteria 25 and 26 is prohibited except for the condition specified in the criterion.

Series [3] in a line: Food effect in study CLNP023X2101. The series is classed as in vivo.
A further series deals with AP. The conditions noted are these: multiple in vitro and in vivo non-clinical studies (Schubart 2019); cited from earlier work.

These results are taken from US20240238266A1 (Novartis AG, priority 2021, published 2024).

Take `CCO[C@H]1CCN(Cc2c(OC)cc(C)c3[nH]ccc23)[C@H](c2ccc(C(=O)O)cc2)C1` [iptacopan, 4-((2S,4S)-(4-ethoxy-1-((5-methoxy-7-methyl-1H-indol-4-yl)methyl)piperidin-2-yl))benzoic acid]: the “inhibition of the AP (Wieslab assay) predicted by exposure-response model” value in the series with AP activity (Wieslab) (about 200 mg b.i.d, in most participants, model developed with FIH data in healthy volunteers) is on record as greater than 90%. Also, in the series with AP activity (Wieslab) (over 14 days of dosing at 200 mg b.i.d), the “suppression of the AP (inhibition), sustained” value was no less than 80%. Moreover, the “inhibition of AP activity (Wieslab)” value in the series on AP activity (Wieslab) (two hours post-dose, single dose of 200 mg, FIH study participants) is no less than 80%. Besides, in series [1], the “direct kidney excretion, share of overall iptacopan dose” value is on record as 20-25% and the “kidney contribution to the overall iptacopan clearance” value was 20-25%. Besides, the “substrate of OATP hepatic uptake transporter” value in series [2] is listed as “substrate”. The food effect result in series [3] was “no food effect”. The “inhibition of the AP” value with AP was “demonstrated inhibition of the AP”.
